Measurements reported in patent US20260158092A1, “COMPOSITION COMPRISING AT LEAST ONE CANNABIS EXTRACT FOR USE IN THE TREATMENT OF AN INFLAMMATORY BOWEL DISEASE” (LINNEA SA, priority 2022, published 2026).
“Also recorded” adds a separate entry of the source.

Tests used:
[1] = test system: CXCL10; experiment: CXCL10 secretion in undifferentiated CaCo-2 cells (colonocytes) under pro-inflammatory stimulation; assay type: cell-based, human; details: cannabinoids 8 μM; for CXCL-10 release: colonocyte, IL-1β/IFN-γ, Phase 3, extracts subjected to digestion 100 μg/mL; for CXCL10 secretion: colonocytes, 10 ng/mL IFNγ and 10 ng/mL IL-1β, 24 hours, extracts 100 μg/mL
Experimental: Firstly, the individual cannabinoids CBD and CBG in undifferentiated cells (colonocytes) were analysed by comparing two different pro-inflammatory mixtures, in order to simplify the pro-inflammatory stimulation and the activation pathways involved. The pro-inflammatory mixture 50 ng/mL TNFα, 10 ng/mL LPS, 50 ng/ml IFNγ and 25 ng/ml IL-1ß mimics an inflammatory disease with a bacterial aetiology and was compared with a less complex mixture, consisting of 10 ng/mL IFNγ and 10 ng/mL IL-1β, deprived of the “bacterial” component, therefore more characteristic of an advanced inflammatory disease.
From the analysis of the pro-inflammatory genes most regulated by the application of the pro-inflammatory mixture, chemokines of the CXC family particularly over-expressed in the enterocyte and colonocyte emerged (FIG. 4).
The used concentration of the cannabinoids (8 μM) corresponds to a quantity equal to […] in the extracts at a concentration of 100 μg/mL.
Based on the results obtained, the effects of the different extracts were evaluated using the pro-inflammatory stimulation consisting of 10 ng/mL IFNγ and 10 ng/mL IL-1β.
(§1) Consequently, the effect of the extracts at the protein level, especially in the colonocyte, was evaluated by ELISA assays for inflammatory mediators selected starting from the transcriptional data. All mediators are regulated by NF-κB.

[2] = test system: undifferentiated CaCo-2 cells (colonocytes); experiment: Cytotoxicity / cell viability (MTT) in colonocytes
Experimental: Firstly, the cytotoxicity of the extracts in the undifferentiated CaCo-2 cells (colonocytes) at 100 μg/mL was evaluated.
In the first phase of the work, the combination of IL-1β (10 ng/ml) and IFN-γ (10 ng/mL) was selected as pro-inflammatory stimulation. During the third experimental phase, the cytotoxicity of the extracts in both colonocytes and enterocytes was compared, using this pro-inflammatory cocktail.

[3] = test system: CXCL-9; experiment: CXCL-9 release by the colonocyte (ELISA); assay type: cell-based, human; details: IL-1β/IFN-γ, extracts subjected to digestion 100 μg/mL, cannabinoids 8 μM
Experimental: (§2) FIGS. 18A, 18B, 18C and 18D: Effect of the extracts 5 and 6 subjected to intestinal digestion (5d, 6d) and of the cannabinoids (CBD, CBG) on the release of inflammatory mediators (CXCL-9, CXCL-10, CCL-20, IL-15) by the colonocyte. The extracts (100 μg/mL) and the isolated molecules (8 μM) were used in the treatment concomitant with pro-inflammatory stimulation (IL-1β/IFN-γ), arbitrarily placed at 100% . * p<0.05; ** p<0.01; *** p<0.001 (one-way ANOVA test) vs IL-1β/IFN-γ. The data are the mean±SEM of at least three duplicate experiments.
as §1

[4] = test system: CCL-20; experiment: CCL-20 release by the colonocyte (ELISA); assay type: cell-based, human; details: IL-1β/IFN-γ, extracts subjected to digestion 100 μg/mL, cannabinoids 8 μM
Experimental: as §2, §1

[5] = test system: CXCL-9, CXCL-10; experiment: Release of inflammatory mediators (CXCL-9, CXCL-10) by the enterocyte; assay type: cell-based, human; details: enterocyte model; IL-1β/IFN-γ; extracts subjected to digestion 100 μg/mL, cannabinoids 8 μM
Experimental: as §2, with “FIG. 19:” for “FIGS. 18A, 18B, 18C and 18D:”, “CXCL-10)” for “CXCL-10, CCL-20, IL-15)”, “enterocyte.” for “colonocyte.”
The same was highlighted with the use of pure cannabinoids. In analogy with the colonocyte, the release of IL-15 was found not relevant in the enterocyte model, compared to an increase at the transcriptional level.

[6] = test system: human microbiota of fecal origin; experiment: Prebiotic effect: butyric acid (SCFA) production after fecal fermentation; details: for butyric acid (SCFA) production, Mean (n = 4): LC-MS analysis, human microbiota of fecal origin
Experimental: In the last phase of the project, the prebiotic effect of the extracts 5 and 6 towards enteric bacterial strains was evaluated by means of fecal fermentation followed by gene analysis of selected strains.
Following fermentation of the extracts, the level of butyric acid produced by the intestinal flora was measured as an indicator of SCFA production. The reliability of the quantitative analysis was reinforced by two different techniques, namely an ELISA assay and mass spectrometry.
Table 2 below reports the prebiotic effect of the extracts 5 and 6 subjected to intestinal digestion (5d, 6d) and of the cannabinoids (CBD, CBG) in terms of induction of butyric acid (SCFA) production by the human microbiota of fecal origin. The result is expressed in μg/mL (LC-MS analysis).

[7] = test system: NF-κB; details: human HaCaT keratinocytes; micromolar concentrations; DOI: 10.1002/ptr.6400; cited from earlier work
[8] = test system: NF-κB transcription factor; experiment: NF-κB driven transcription, luciferase reporter plasmid in colonocytes; assay type: cell-based, human; details: 10 ng/mL IFNγ and 10 ng/mL IL-1β, 6 hours, extracts 100 μg/mL, cannabinoids 8 μM
Excerpt: The use of this promoter allows the effect of the extracts/active molecules on transcription driven by this transcription factor to be observed.

Compound | CXCL-10 release [1] | CXCL10 secretion [1] | cell viability / cytotoxicity (MTT) ([2]; 10 ng/mL IFNγ and 10 ng/mL IL-1β, 24 hours, extracts 100 μg/mL, cannabinoids 8 μM) | reduction in viability (MTT) ([2]; IL-1β/IFN-γ, 8 μM) [%] | CXCL-9 release [3] | CCL-20 release [4] | release of inflammatory mediators [5] | butyric acid (SCFA) production, Mean (n = 4) [6] [µg/mL] | effect on NF-κB transcription factor [7] | NF-κB driven transcription [8] | increase in butyric acid levels ([6]; fecal fermentation) [times]
C=C(C)[C@@H]1CCC(C)=C[C@H]1c1c(O)cc(CCCCC)cc1O [CBD, cannabidiol] | more or less marked inhibitory effect on all the mediators | reduced CXCL10 secretion; also recorded: more active than CBG | slight reduction in cell viability | −25 | more or less marked inhibitory effect on all the mediators | more or less marked inhibitory effect on all the mediators | never showed inhibitory effects | 212.20 | inhibitory effect | – | –
CCCCCc1cc(O)c(C/C=C(\C)CCC=C(C)C)c(O)c1 [CBG, cannabigerol] | participate in the inhibitory activity | reduced CXCL10 secretion | – | – | participate in the inhibitory activity | – | never showed inhibitory effects | 173.54 | – | more active than CBD | –
Inulin | – | – | – | – | – | – | – | 638.87 | – | – | 5
